The values below come from patent publication US20240025919A1, “AZA-TETRACYCLIC OXAZEPINE COMPOUNDS AND USES THEREOF” (Genentech, Inc., priority 2022, published 2024).

Like-named read-outs stand apart in the source and are kept apart here.

The target in one assay is KRAS G12D (Homo sapiens (Human), UniProt P01116, G12D). Put plainly: KRAS G12D LoEnz Biochemical Assay, BODIPY-GDP Exchange TR-FRET (SOS1-mediated nucleotide exchange). The note with it: read-out: KRas (G12D) GDP HTRF IC50. A general note: Time-resolved FRET reads energy transfer from a long-lived donor to a nearby acceptor.
Chain of KRAS G12D (P01116-2 other isoform, or with tags, fused parts or gaps G12D): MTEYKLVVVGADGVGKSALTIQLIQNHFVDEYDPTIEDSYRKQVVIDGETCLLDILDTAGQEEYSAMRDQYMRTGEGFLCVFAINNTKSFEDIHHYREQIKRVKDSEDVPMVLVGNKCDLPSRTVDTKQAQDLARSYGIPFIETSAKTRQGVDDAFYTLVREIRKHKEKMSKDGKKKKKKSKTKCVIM
In a further assay the target is KRAS WT (Homo sapiens (Human), UniProt P01116). Put plainly: KRAS WT Biochemical Assay, BODIPY-GDP Exchange TR-FRET (Example 501; 3 nM KRAS WT, 3 nM SOS1, 60-minute incubation). The procedure, abridged: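 SOS1-mediated exchange assay: 3 nM biotin-KRAS WT with terbium-streptavidin, started with 3 nM SOS1 and 300 nM BODIPY-GDP, HEPES pH 7.5 with MgCl2. TR-FRET (520/490 nm) read after 60 min; normalized to DMSO and full-inhibition control, IC50 from 4-parameter Hill fit.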
Chain of KRAS WT (P01116-2 other isoform, or with tags, fused parts or gaps): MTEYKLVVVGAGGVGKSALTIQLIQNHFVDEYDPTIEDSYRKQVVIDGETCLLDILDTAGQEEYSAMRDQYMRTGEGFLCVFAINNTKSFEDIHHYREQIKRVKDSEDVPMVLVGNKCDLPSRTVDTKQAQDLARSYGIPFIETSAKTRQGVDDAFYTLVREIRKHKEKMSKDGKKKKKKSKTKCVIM

The mark [1] stands for this setting: read-out: KRas(wt) GDP HTRF IC50.

As for `C#Cc1cccc2cncc(-c3nc4c5c(nc(OC[C@@]67CCCN6CC6(CC6(F)F)C7)nc5c3F)N3C[C@H]5CC[C@H](N5)[C@H]3[C@H](C)O4)c12` (stereo partly drawn) [Compound 40, (5S,5aS,6S,9R)-12-(((7a′S)-2,2-difluorodihydro-1′H,3′H-spiro[cyclopropane-1,2′-pyrrolizin]-7a′(5′H)-yl)methoxy)-2-(5-ethynylisoquinolin-4-yl)-1-fluoro-5-methyl-5a,6,7,8,9,10-hexahydro-5H-4-oxa-3,10a,11,13,14-pentaaza-6,9-methanonaphtho[1,8-ab]heptalene], the values for the IC50 on KRAS G12D and on KRAS WT (setting [1]) were 1.3 nM and 86.8 nM, respectively.
Consider `Cc1cc(N)c(F)c(-c2nc3c4c(nc(OCC5(CN6CCOCC6)CC5)nc4c2F)N2C[C@H]4CC[C@H](N4)[C@H]2[C@H](C)O3)c1C(F)(F)F` [Compound 226, 2-Fluoro-3-((5S,5aS,6S,9R)-1-fluoro-5-methyl-12-((1-(morpholinomethyl)cyclopropyl)methoxy)-5a,6,7,8,9,10-hexahydro-5H-4-oxa-3,10a,11,13,14-pentaaza-6,9-methanonaphtho[1,8-ab]heptalene-2-yl)-5-methyl-4-(trifluoromethyl)aniline], for which the results for the IC50 at KRAS G12D and on KRAS WT (read-out: KRas HTRF IC50) were 0.4 nM and 8.11 nM, respectively.
In the case of `C[C@@H]1Oc2nc(-c3cc(N)c(=O)n(C)c3C(F)(F)F)c(F)c3nc(OC[C@@]45CCCN4C[C@H](F)C5)nc(c23)N2C[C@H]3CC[C@H](N3)[C@@H]12` [Compound 184, 3-Amino-5-((5S,5aS,6S,9R)-1-fluoro-12-(((2R,7aS)-2-fluorotetrahydro-1H-pyrrolizin-7a(5H)-yl)methoxy)-5-methyl-5a,6,7,8,9,10-hexahydro-5H-4-oxa-3,10a,11,13,14-pentaaza-6,9-methanonaphtho[1,8-ab]heptalene-2-yl)-1-methyl-6-(trifluoromethyl)pyridin-2(1H)-one], the figures for the concentration for half-maximal inhibition (IC50) on KRAS G12D and at KRAS WT (read-out: KRas HTRF IC50) were 1.98 nM and 393 nM, respectively.
Consider `Cc1c(F)c(N)cc(-c2nc3c4c(nc(OC[C@@]56CCCN5C[C@H](F)C6)nc4c2F)N2CCNC[C@H]2C(C)O3)c1C(F)(F)F` (single isomer, unassigned) [235 (isomer 2)], for which the IC50 on KRAS G12D stood at 0.48 nM; on KRAS WT (read-out: KRas HTRF IC50), 2.63 nM.
As for `Cc1nc(N)c(F)c(-c2nc3c4c(nc(OCC5(CN6CCOCC6)CC5)nc4c2F)N2C[C@H]4CC[C@H](N4)[C@H]2[C@H](C)O3)c1C(F)(F)F` [Compound 219, 3-Fluoro-4-((5S,5aS,6S,9R)-1-fluoro-5-methyl-12-((1-(morpholinomethyl)cyclopropyl)methoxy)-5a,6,7,8,9,10-hexahydro-5H-4-oxa-3,10a,11,13,14-pentaaza-6,9-methanonaphtho[1,8-ab]heptalen-2-yl)-6-methyl-5-(trifluoromethyl)pyridin-2-amine], the results for the half-inhibitory concentration (IC50) at KRAS G12D and on KRAS WT (read-out: KRas HTRF IC50) were 0.46 nM and 47.3 nM, respectively.
On the same counts, the results for `Cc1nc(N)c(Cl)c(-c2nc3c4c(nc(OC[C@@]56CCCN5C[C@H](F)C6)nc4c2F)N2C[C@H]4CC[C@H](N4)[C@H]2[C@H](C)O3)c1C(F)(F)F` [Compound 197, 3-Chloro-4-((5S,5aS,6S,9R)-1-fluoro-12-(((2R,7aS)-2-fluorotetrahydro-1H-pyrrolizin-7a(5H)-yl)methoxy)-5-methyl-5a,6,7,8,9,10-hexahydro-5H-4-oxa-3,10a,11,13,14-pentaaza-6,9-methanonaphtho[1,8-ab]heptalen-2-yl)-6-methyl-5-(trifluoromethyl)pyridin-2-amine] are 0.46 nM and 59.8 nM.
On the same counts, the results for `Cc1nc(N)c(F)c(-c2nc3c4c(nc(OCC5(CN6C[C@@H]7C[C@H]6CO7)CC5)nc4c2F)N2C[C@H]4CC[C@H](N4)[C@H]2[C@H](C)O3)c1C(F)(F)F` [Compound 222, 4-((5S,5aS,6S,9R)-12-((1-(((1S,4S)-2-Oxa-5-azabicyclo[2.2.1]heptan-5-yl)methyl)cyclopropyl)methoxy)-1-fluoro-5-methyl-5a,6,7,8,9,10-hexahydro-5H-4-oxa-3,10a,11,13,14-pentaaza-6,9-methanonaphtho[1,8-ab]heptalene-2-yl)-3-fluoro-6-methyl-5-(trifluoromethyl)pyridin-2-amine] are 3.39 nM and 45.7 nM.
`Cc1c(Cl)c(N)cc(-c2nc3c4c(nc(OC[C@@]56CCCN5C[C@H](F)C6)nc4c2Cl)N2C[C@H]4CC[C@H](N4)[C@H]2[C@H](C)O3)c1C(F)(F)F` [Compound 241, 2-Chloro-5-((5S,5aS,6S,9R)-1-chloro-12-(((2R,7aS)-2-fluorotetrahydro-1H-pyrrolizin-7a(5H)-yl)methoxy)-5-methyl-5a,6,7,8,9,10-hexahydro-5H-4-oxa-3,10a,11,13,14-pentaaza-6,9-methanonaphtho[1,8-ab]heptalen-2-yl)-3-methyl-4-(trifluoromethyl)aniline]: the values for the IC50 on KRAS G12D and on KRAS WT (read-out: KRas HTRF IC50) were 0.13 nM and 15.4 nM, respectively.
`Cc1nc(N)c(C)c(-c2nc3c4c(nc(OC[C@@]56CCCN5C[C@H](F)C6)nc4c2F)N2C[C@H]4CC[C@H](N4)[C@H]2[C@H](C)O3)c1C(F)(F)F` [Compound 198, 4-((5S,5aS,6S,9R)-1-Fluoro-12-(((2R,7aS)-2-fluorotetrahydro-1H-pyrrolizin-7a(5H)-yl)methoxy)-5-methyl-5a,6,7,8,9,10-hexahydro-5H-4-oxa-3,10a,11,13,14-pentaaza-6,9-methanonaphtho[1,8-ab]heptalen-2-yl)-3,6-dimethyl-5-(trifluoromethyl)pyridin-2-amine]: the IC50 at KRAS G12D stood at 0.62 nM; on KRAS WT (read-out: KRas HTRF IC50), 85.8 nM.
On the same counts, the results for `Cc1nc(N)cc(-c2nc3c4c(nc(OCC5(CN6CCOC7(CC7)C6)CC5)nc4c2F)N2C[C@H]4CC[C@H](N4)[C@H]2[C@H](C)O3)c1C(F)(F)F` [Compound 212, 4-((5S,5aS,6S,9R)-12-((1-((4-Oxa-7-azaspiro[2.5]octan-7-yl)methyl)cyclopropyl)methoxy)-1-fluoro-5-methyl-5a,6,7,8,9,10-hexahydro-5H-4-oxa-3,10a,11,13,14-pentaaza[6,9]methanonaphtho[1,8-ab]heptalene-2-yl)-6-methyl-5-(trifluoromethyl)pyridin-2-amine] are 0.56 nM and 39.1 nM.
On the same counts, the results for `Cc1c(F)c(N)cc(-c2nc3c4c(nc(OC[C@@H]5CC[C@H]6COCCN65)nc4c2F)N2C[C@H]4CC[C@H](N4)[C@H]2[C@H](C(F)(F)F)O3)c1C(F)(F)F` [Compound 245, 2-Fluoro-5-((5R,5aS,6S,9R)-1-fluoro-12-(((6S,8aS)-hexahydro-1H-pyrrolo[2,1-c][1,4]oxazin-6-yl)methoxy)-5-(trifluoromethyl)-5a,6,7,8,9,10-hexahydro-5H-4-oxa-3,10a,11,13,14-pentaaza-6,9-methanonaphtho[1,8-ab]heptalene-2-yl)-3-methyl-4-(trifluoromethyl)aniline] are 0.249 nM and 7.44 nM.
`Cc1cc(N)nc(-c2nc3c4c(ncnc4c2F)N2C[C@H]4CC[C@H](N4)[C@H]2CO3)c1C(F)(F)F` [Compound 52, 6-((5aS,6S,9R)-1-Fluoro-5a,6,7,8,9,10-hexahydro-5H-4-oxa-3,10a,11,13,14-pentaaza-6,9-methanonaphtho[1,8-ab]heptalen-2-yl)-4-methyl-5-(trifluoromethyl)pyridin-2-amine]: the figures for the IC50 on KRAS G12D and at KRAS WT (setting [1]) were 2140 nM and 194000 nM, respectively.

Usually IC50 stands for the concentration needed to halve the response being measured.
